Experimental data reported in PubChem BioAssay (NCI).
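Cultured in 96-well plates, cells were exposed to test compound for 48 hours across five concentrations. Definition used: TGI = concentration required for complete inhibition of growth.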

How the values were obtained:
Test in all cases: DTP human tumour cell line panel, 48 h
[1] = system: LOX IMVI melanoma
[2] = system: SN12C renal
[3] = system: 786-0 renal
[4] = system: TK-10 renal
[5] = system: NCI-H460 lung
[6] = system: RXF 393 renal
[7] = system: SNB-19 CNS
[8] = system: MDA-MB-435
[9] = system: NCI-H23 lung
[10] = system: MALME-3M melanoma
[11] = system: MDA-N
[12] = system: KM12 colon
[13] = system: OVCAR-5 ovarian
[14] = system: NCI-H226 lung
[15] = system: UACC-257 melanoma
[16] = system: SK-MEL-28 melanoma
[17] = system: NCI/ADR-RES ovarian
[18] = system: HCT-15 colon
[19] = system: OVCAR-8 ovarian
[20] = system: UACC-62 melanoma
[21] = system: SF-539 CNS
[22] = system: OVCAR-4 ovarian
[23] = system: DU-145 prostate
[24] = system: HCC-2998 colon
[25] = system: MDA-MB-231 breast
[26] = system: K-562 leukemia
[27] = system: COLO 205 colon
[28] = system: A549 NSCLC
[29] = system: HOP-62 NSCLC
[30] = system: SF-268 CNS
[31] = system: MOLT-4 leukemia
[32] = system: CAKI-1 renal
[33] = system: HS 578T breast
[34] = system: HT29 colon
[35] = system: PC-3 prostate
[36] = system: SK-MEL-2 melanoma
[37] = system: SF-295 CNS
[38] = system: SW-620 colon
[39] = system: MCF7 breast
[40] = system: U251 CNS
[41] = system: M14 melanoma
[42] = system: ACHN renal
[43] = system: SK-OV-3 ovarian
[44] = system: BT-549 breast
[45] = system: SK-MEL-5 melanoma
[46] = system: CCRF-CEM leukemia
[47] = system: T-47D breast
[48] = system: IGROV1 ovarian
[49] = system: HCT-116 colon
[50] = system: OVCAR-3 ovarian
[51] = system: EKVX NSCLC
[52] = system: A498 renal
[53] = system: NCI-H522 lung
[54] = system: HOP-92 NSCLC
[55] = system: UO-31 renal
[56] = system: RPMI-8226 leukemia
[57] = system: SNB-75 CNS

Question: O=[N+]([O-])c1ccc(CSC2=C(c3ccc(Cl)cc3)S/C(=C3\SC(SCc4ccc([N+](=O)[O-])cc4)=C(c4ccc(Cl)cc4)S3)S2)cc1 was tested. Which TGI [1] did it give?
Answer: > 100000 nM

Question: What about the TGI [2] of the same compound?
Answer: > 100000 nM

Question: What about the TGI [3] of the same compound?
Answer: > 100000 nM

Question: What about the TGI [4] of the same compound?
Answer: > 100000 nM

Question: What about the TGI [5] of the same compound?
Answer: > 100000 nM

Question: And the TGI [6]?
Answer: > 100000 nM

Question: And the TGI [7]?
Answer: > 100000 nM

Question: And the TGI [8]?
Answer: > 100000 nM

Question: And the TGI [9]?
Answer: > 100000 nM

Question: What about the TGI [10] of the same compound?
Answer: > 100000 nM

Question: And the TGI [11]?
Answer: > 100000 nM

Question: And the TGI [12]?
Answer: > 100000 nM

Question: What about the TGI [13] of the same compound?
Answer: > 100000 nM

Question: And the TGI [14]?
Answer: > 100000 nM

Question: What about the TGI [15] of the same compound?
Answer: > 100000 nM

Question: What about the TGI [16] of the same compound?
Answer: > 100000 nM

Question: What about the TGI [17] of the same compound?
Answer: > 100000 nM

Question: And the TGI [18]?
Answer: > 100000 nM

Question: What about the TGI [19] of the same compound?
Answer: > 100000 nM

Question: What about the TGI [20] of the same compound?
Answer: > 100000 nM

Question: What about the TGI [21] of the same compound?
Answer: > 100000 nM

Question: And the TGI [22]?
Answer: > 100000 nM

Question: And the TGI [23]?
Answer: > 100000 nM

Question: What about the TGI [24] of the same compound?
Answer: > 100000 nM

Question: What about the TGI [25] of the same compound?
Answer: > 100000 nM

Question: What about the TGI [26] of the same compound?
Answer: > 100000 nM

Question: And the TGI [27]?
Answer: > 100000 nM

Question: What about the TGI [28] of the same compound?
Answer: > 100000 nM

Question: What about the TGI [29] of the same compound?
Answer: > 100000 nM

Question: What about the TGI [30] of the same compound?
Answer: > 100000 nM

Question: And the TGI [31]?
Answer: > 100000 nM

Question: And the TGI [32]?
Answer: > 100000 nM

Question: What about the TGI [33] of the same compound?
Answer: > 100000 nM

Question: What about the TGI [34] of the same compound?
Answer: > 100000 nM

Question: What about the TGI [35] of the same compound?
Answer: > 100000 nM

Question: What about the TGI [36] of the same compound?
Answer: > 100000 nM

Question: And the TGI [37]?
Answer: > 100000 nM

Question: And the TGI [38]?
Answer: > 100000 nM

Question: What about the TGI [39] of the same compound?
Answer: > 100000 nM

Question: What about the TGI [40] of the same compound?
Answer: > 100000 nM

Question: And the TGI [41]?
Answer: > 100000 nM

Question: And the TGI [42]?
Answer: > 100000 nM

Question: And the TGI [43]?
Answer: > 100000 nM

Question: What about the TGI [44] of the same compound?
Answer: > 100000 nM

Question: And the TGI [45]?
Answer: > 100000 nM

Question: And the TGI [46]?
Answer: > 100000 nM

Question: What about the TGI [47] of the same compound?
Answer: > 100000 nM

Question: And the TGI [48]?
Answer: > 100000 nM

Question: What about the TGI [49] of the same compound?
Answer: > 100000 nM

Question: What about the TGI [50] of the same compound?
Answer: > 100000 nM

Question: What about the TGI [51] of the same compound?
Answer: > 100000 nM

Question: And the TGI [52]?
Answer: > 100000 nM

Question: And the TGI [53]?
Answer: > 100000 nM

Question: What about the TGI [54] of the same compound?
Answer: > 100000 nM

Question: CO[C@H]1C[C@H](O[C@H]2CC[C@@]3(C)[C@H](CC[C@@H]4[C@@H]3CC[C@]3(C)[C@@H](C5=CC(=O)OC5)CC[C@]43O)C2)O[C@H](C)[C@H]1O was tested. Which TGI [1] did it give?
Answer: 15.9 nM

Question: And the TGI [2]?
Answer: 11.1 nM

Question: And the TGI [3]?
Answer: < 12.9 nM

Question: And the TGI [4]?
Answer: 48.2 nM

Question: And the TGI [5]?
Answer: 10.3 nM

Question: What about the TGI [6] of the same compound?
Answer: 10.5 nM

Question: What about the TGI [7] of the same compound?
Answer: 143 nM

Question: And the TGI [8]?
Answer: 97.4 nM

Question: What about the TGI [9] of the same compound?
Answer: 17.8 nM

Question: What about the TGI [10] of the same compound?
Answer: 11.3 nM

Question: And the TGI [11]?
Answer: 114 nM

Question: What about the TGI [12] of the same compound?
Answer: 371 nM

Question: And the TGI [13]?
Answer: 89.6 nM

Question: What about the TGI [14] of the same compound?
Answer: 58.6 nM

Question: And the TGI [15]?
Answer: 215 nM

Question: What about the TGI [16] of the same compound?
Answer: 137 nM

Question: And the TGI [17]?
Answer: 47.2 nM

Question: And the TGI [18]?
Answer: 16.4 nM

Question: What about the TGI [19] of the same compound?
Answer: 24.5 nM

Question: And the TGI [20]?
Answer: 31 nM

Question: What about the TGI [55] of the same compound?
Answer: 21.7 nM

Question: And the TGI [21]?
Answer: 13.8 nM

Question: And the TGI [22]?
Answer: < 13.1 nM

Question: What about the TGI [24] of the same compound?
Answer: 118 nM

Question: What about the TGI [25] of the same compound?
Answer: 412 nM

Question: And the TGI [27]?
Answer: 235 nM

Question: What about the TGI [28] of the same compound?
Answer: < 11.8 nM

Question: And the TGI [29]?
Answer: 20.2 nM

Question: What about the TGI [30] of the same compound?
Answer: 18.8 nM

Question: And the TGI [32]?
Answer: 28.4 nM

Question: What about the TGI [34] of the same compound?
Answer: 55.2 nM

Question: What about the TGI [56] of the same compound?
Answer: 42.7 nM

Question: And the TGI [35]?
Answer: 21.2 nM

Question: What about the TGI [36] of the same compound?
Answer: 47.8 nM

Question: What about the TGI [37] of the same compound?
Answer: 55.5 nM

Question: What about the TGI [38] of the same compound?
Answer: 113 nM

Question: What about the TGI [39] of the same compound?
Answer: 134 nM

Question: And the TGI [40]?
Answer: 19.7 nM

Question: What about the TGI [41] of the same compound?
Answer: 60.7 nM

Question: What about the TGI [42] of the same compound?
Answer: 10.1 nM

Question: And the TGI [43]?
Answer: 29.1 nM

Question: What about the TGI [44] of the same compound?
Answer: 17.5 nM

Question: What about the TGI [45] of the same compound?
Answer: 46.9 nM

Question: And the TGI [46]?
Answer: > 100000 nM

Question: What about the TGI [48] of the same compound?
Answer: 113 nM

Question: What about the TGI [49] of the same compound?
Answer: 16.1 nM

Question: What about the TGI [50] of the same compound?
Answer: < 19.4 nM

Question: And the TGI [51]?
Answer: 14.8 nM

Question: And the TGI [57]?
Answer: 170 nM

Question: What about the TGI [52] of the same compound?
Answer: 58.9 nM

Question: And the TGI [53]?
Answer: 19.7 nM

Question: What about the TGI [54] of the same compound?
Answer: 88.2 nM
